In patent publication US10597388B2, “Pyridazinone herbicides” (FMC CORPORATION, priority 2014, dated 2020):

Experiments:
Assay in all cases: Test C greenhouse herbicide test, pre- and postemergence
Assay type in all cases: in vivo
[1] = tested on: johnsongrass (Sorghum halepense)
From the text: (§1) Seeds of plant species selected from blackgrass (Alopecurus myosuroides), ryegrass, Italian (Italian ryegrass, Lolium multiflorum), wheat (winter wheat, Triticum aestivum), galium (catchweed bedstraw, Galium aparine), corn (Zea mays), large crabgrass, large (large crabgrass, Digitaria sanguinalis), foxtail, giant (giant foxtail, Setaria faberii), johnsongrass (Sorghum halepense), lambsquarters (Chenopodium album), morningglory (Ipomoea coccinea), nutsedge, yellow (yellow nutsedge, Cyperus esculentus), pigweed (Amaranthus retroflexus), ragweed (common ragweed, Ambrosia elatior), soybean (Glycine max), barnyardgrass (Echinochloa crus-galli), oilseed rape (Brassica napus), waterhemp (common waterhemp, Amaranthus rudis), and velvetleaf (Abutilon theophrasti) were planted into a blend of loam soil and sand and treated preemergence with test chemicals formulated in a non-phytotoxic solvent mixture which included a surfactant.
(§2) At the same time, plants selected from these crop and weed species and also chickweed (common chickweed, Stellaria media), kochia (Kochia scoparia), and oat, wild (wild oat, Avena fatua), were planted in pots containing Redi-Earth® planting medium (Scotts Company, 14111 Scottslawn Road, Marysville, Ohio 43041) comprising spaghnum peat moss, vermiculite, wetting agent and starter nutrients and treated with postemergence applications of test chemicals formulated in the same manner. Plants ranged in height from 2 to 18 cm (1- to 4-leaf stage) for postemergence treatments. Treated plants and controls were maintained in a greenhouse for 13 to 15 d, after which time all species were compared to controls and visually evaluated. Plant response ratings, summarized in Table C, are based on a scale of 0 to 100 where 0 is no effect and 100 is complete control. A dash (-) response means no test result.

[2] = tested on: waterhemp (common waterhemp, Amaranthus rudis)
From the text: as §1, §2

[3] = tested on: barnyardgrass (Echinochloa crus-galli)
From the text: as §1, §2

[4] = tested on: blackgrass (Alopecurus myosuroides)
From the text: as §1, §2

[5] = tested on: pigweed (Amaranthus retroflexus)
From the text: as §1, §2

soybean (Glycine max) = tested on: soybean (Glycine max)
From the text: as §1, §2

[6] = tested on: ragweed (common ragweed, Ambrosia elatior)
From the text: as §1, §2

[7] = tested on: wheat (winter wheat, Triticum aestivum)
From the text: as §1, §2

[8] = tested on: crabgrass, large (large crabgrass, Digitaria sanguinalis)
From the text: as §1, §2

[9] = tested on: velvetleaf (Abutilon theophrasti)
From the text: as §1, §2

[10] = tested on: ryegrass, Italian (Italian ryegrass, Lolium multiflorum)
From the text: as §1, §2

[11] = tested on: morningglory (Ipomoea coccinea)
From the text: as §1, §2

[12] = tested on: lambsquarters (Chenopodium album)
From the text: as §1, §2

corn (Zea mays) = tested on: corn (Zea mays)
From the text: as §1, §2

[13] = tested on: nutsedge, yellow (yellow nutsedge, Cyperus esculentus)
From the text: as §1, §2

[14] = Postemergence, 31 g ai/ha, 0 to 100 scale (0 no effect, 100 complete control)
[15] = Postemergence, 125 g ai/ha, scale 0 to 100, 0 is no effect, 100 is complete control
[16] = Postemergence, 250 g ai/ha, scale 0 to 100, 0 no effect, 100 complete control, 13 to 15 d
[17] = Preemergence, 31 g ai/ha, scale 0 to 100, 0 is no effect, 100 is complete control
[18] = Preemergence, 62 g ai/ha, scale 0 to 100, 0 is no effect, 100 is complete control
[19] = Preemergence, 125 g ai/ha, scale 0 to 100, 0 is no effect, 100 is complete control
[20] = Preemergence, 250 g ai/ha, scale 0 to 100, 0 no effect, 100 complete control
[21] = postemergence, 62 g ai/ha, scale 0 to 100, 0 no effect, 100 complete control

## Cc1ccc2sc(C)c(-c3c(OC(=O)OC(C)C)c(C)nn(C)c3=O)c2c1 [Compound 66]
[1]; [14]
  Johnsongrass plant response rating: 5
[1]; [15]
  Plant response rating, Johnsongrass: 5
[1]; [16]
  Plant response rating, Johnsongrass: 15
[1]; [17]
  Plant response rating, Johnsongrass: 10
[1]; [18]
  Plant response rating, Johnsongrass: 25
[1]; [19]
  Plant response rating, Johnsongrass: 55
[1]; [20]
  Johnsongrass plant response rating: 65
[1]; [21]
  Johnsongrass plant response rating: 5
[2]; [14]
  Waterhemp plant response rating: 98
[2]; [15]
  Plant response rating, Waterhemp: 90
[2]; [16]
  Plant response rating, Waterhemp: 100
[2]; [17]
  Plant response rating, Waterhemp: 85
[2]; [18]
  Plant response rating, Waterhemp: 90
[2]; [19]
  Plant response rating, Waterhemp: 100
[2]; [20]
  Waterhemp plant response rating: 100
[2]; [21]
  Waterhemp plant response rating: 90
[3]; [14]
  Barnyardgrass plant response rating: 15
[3]; [15]
  Plant response rating, Barnyardgrass: 30
[3]; [16]
  Plant response rating, Barnyardgrass: 35
[3]; [17]
  Plant response rating, Barnyardgrass: 0
[3]; [18]
  Plant response rating, Barnyardgrass: 20
[3]; [19]
  Plant response rating, Barnyardgrass: 40
[3]; [20]
  Barnyardgrass plant response rating: 70
[3]; [21]
  Barnyardgrass plant response rating: 20
[4]; [14]
  Blackgrass plant response rating: 10
[4]; [15]
  Plant response rating, Blackgrass: 40
[4]; [16]
  Plant response rating, Blackgrass: 60
[4]; [17]
  Plant response rating, Blackgrass: 10
[4]; [18]
  Plant response rating, Blackgrass: 30
[4]; [19]
  Plant response rating, Blackgrass: 35
[4]; [20]
  Blackgrass plant response rating: 30
[4]; [21]
  Blackgrass plant response rating: 15
[5]; [14]
  Pigweed plant response rating: 95
[5]; [15]
  Plant response rating, Pigweed: 100
[5]; [16]
  Plant response rating, Pigweed: 100
[5]; [17]
  Plant response rating, Pigweed: 100
[5]; [18]
  Plant response rating, Pigweed: 100
[5]; [19]
  Plant response rating, Pigweed: 100
[5]; [20]
  Pigweed plant response rating: 100
[5]; [21]
  Pigweed plant response rating: 98
Soybean (Glycine max); [14]
  Soybean plant response rating: 0
Soybean (Glycine max); [15]
  Plant response rating, Soybean: 10
Soybean (Glycine max); [16]
  Plant response rating, Soybean: 5
Soybean (Glycine max); [17]
  Plant response rating, Soybean: 0
Soybean (Glycine max); [18]
  Plant response rating, Soybean: 0
Soybean (Glycine max); [19]
  Plant response rating, Soybean: 0
Soybean (Glycine max); [20]
  Soybean plant response rating: 0
Soybean (Glycine max); [21]
  Soybean plant response rating: 10
[6]; [14]
  Ragweed plant response rating: 85
[6]; [15]
  Plant response rating, Ragweed: 90
[6]; [16]
  Plant response rating, Ragweed: 100
[6]; [17]
  Plant response rating, Ragweed: 75
[6]; [18]
  Plant response rating, Ragweed: 85
[6]; [19]
  Plant response rating, Ragweed: 90
[6]; [20]
  Ragweed plant response rating: 95
[6]; [21]
  Ragweed plant response rating: 85
[7]; [14]
  Wheat plant response rating: 0
[7]; [15]
  Plant response rating, Wheat: 0
[7]; [16]
  Plant response rating, Wheat: 0
[7]; [17]
  Plant response rating, Wheat: 0
[7]; [18]
  Plant response rating, Wheat: 0
[7]; [19]
  Plant response rating, Wheat: 0
[7]; [20]
  Wheat plant response rating: 40
[7]; [21]
  Wheat plant response rating: 0
[8]; [14]
  Crabgrass, Large plant response rating: 25
[8]; [15]
  Plant response rating, Crabgrass, Large: 35
[8]; [16]
  Plant response rating, Crabgrass, Large: 45
[8]; [17]
  Plant response rating, Crabgrass, Large: 75
[8]; [18]
  Plant response rating, Crabgrass, Large: 65
[8]; [19]
  Plant response rating, Crabgrass, Large: 75
[8]; [20]
  Crabgrass, Large plant response rating: 85
[8]; [21]
  Crabgrass, Large plant response rating: 30
[9]; [14]
  Velvetleaf plant response rating: 55
[9]; [15]
  Plant response rating, Velvetleaf: 85
[9]; [16]
  Plant response rating, Velvetleaf: 95
[9]; [17]
  Plant response rating, Velvetleaf: 15
[9]; [18]
  Plant response rating, Velvetleaf: 60
[9]; [19]
  Plant response rating, Velvetleaf: 70
[9]; [20]
  Velvetleaf plant response rating: 85
[9]; [21]
  Velvetleaf plant response rating: 75
[10]; [14]
  Ryegrass, Italian plant response rating: 60
[10]; [15]
  Plant response rating, Ryegrass, Italian: 85
[10]; [16]
  Plant response rating, Ryegrass, Italian: 85
[10]; [17]
  Plant response rating, Ryegrass, Italian: 55
[10]; [18]
  Plant response rating, Ryegrass, Italian: 50
[10]; [19]
  Plant response rating, Ryegrass, Italian: 80
[10]; [20]
  Ryegrass, Italian plant response rating: 90
[10]; [21]
  Ryegrass, Italian plant response rating: 80
[11]; [14]
  Morningglory plant response rating: 90
[11]; [15]
  Plant response rating, Morningglory: 100
[11]; [16]
  Plant response rating, Morningglory: 100
[11]; [17]
  Plant response rating, Morningglory: 80
[11]; [18]
  Plant response rating, Morningglory: 85
[11]; [19]
  Plant response rating, Morningglory: 80
[11]; [20]
  Morningglory plant response rating: 90
[11]; [21]
  Morningglory plant response rating: 95
[12]; [14]
  Lambsquarters plant response rating: 90
[12]; [15]
  Plant response rating, Lambsquarters: 100
[12]; [16]
  Plant response rating, Lambsquarters: 100
[12]; [17]
  Plant response rating, Lambsquarters: 80
[12]; [18]
  Plant response rating, Lambsquarters: 85
[12]; [19]
  Plant response rating, Lambsquarters: 85
[12]; [20]
  Lambsquarters plant response rating: 98
[12]; [21]
  Lambsquarters plant response rating: 100
Corn (Zea mays); [14]
  Corn plant response rating: 0
Corn (Zea mays); [15]
  Plant response rating, Corn: 5
Corn (Zea mays); [16]
  Plant response rating, Corn: 25
Corn (Zea mays); [17]
  Plant response rating, Corn: 0
Corn (Zea mays); [18]
  Plant response rating, Corn: 0
Corn (Zea mays); [19]
  Plant response rating, Corn: 0
Corn (Zea mays); [20]
  Corn plant response rating: 0
Corn (Zea mays); [21]
  Corn plant response rating: 0
[13]; [14]
  Nutsedge, Yellow plant response rating: 65
[13]; [15]
  Plant response rating, Nutsedge, Yellow: 85
[13]; [16]
  Plant response rating, Nutsedge, Yellow: 85
[13]; [17]
  Plant response rating, Nutsedge, Yellow: 35
[13]; [18]
  Plant response rating, Nutsedge, Yellow: 35
[13]; [19]
  Plant response rating, Nutsedge, Yellow: 30
[13]; [20]
  Nutsedge, Yellow plant response rating: 65
[13]; [21]
  Nutsedge, Yellow plant response rating: 70

## CC(=O)Oc1c(Cl)nn(C)c(=O)c1-c1c(C)sc2ccc(C(F)(F)F)cc12 [Compound 152]
[1]; [17]
  Plant response rating, Johnsongrass: 0
[1]; [18]
  Plant response rating, Johnsongrass: 0
[1]; [19]
  Plant response rating, Johnsongrass: 0
[1]; [20]
  Johnsongrass plant response rating: 5
[2]; [17]
  Plant response rating, Waterhemp: 20
[2]; [18]
  Plant response rating, Waterhemp: 85
[2]; [19]
  Plant response rating, Waterhemp: 85
[2]; [20]
  Waterhemp plant response rating: 75
[3]; [17]
  Plant response rating, Barnyardgrass: 5
[3]; [18]
  Plant response rating, Barnyardgrass: 5
[3]; [19]
  Plant response rating, Barnyardgrass: 30
[3]; [20]
  Barnyardgrass plant response rating: 70
[4]; [17]
  Plant response rating, Blackgrass: 5
[4]; [18]
  Plant response rating, Blackgrass: 5
[4]; [19]
  Plant response rating, Blackgrass: 30
[4]; [20]
  Blackgrass plant response rating: 35
[5]; [17]
  Plant response rating, Pigweed: 80
[5]; [18]
  Plant response rating, Pigweed: 100
[5]; [19]
  Plant response rating, Pigweed: 100
[5]; [20]
  Pigweed plant response rating: 100
Soybean (Glycine max); [17]
  Plant response rating, Soybean: 0
Soybean (Glycine max); [18]
  Plant response rating, Soybean: 5
Soybean (Glycine max); [19]
  Plant response rating, Soybean: 5
Soybean (Glycine max); [20]
  Soybean plant response rating: 10
[6]; [17]
  Plant response rating, Ragweed: 85
[6]; [18]
  Plant response rating, Ragweed: 40
[6]; [19]
  Plant response rating, Ragweed: 75
[6]; [20]
  Ragweed plant response rating: 90
[7]; [17]
  Plant response rating, Wheat: 0
[7]; [18]
  Plant response rating, Wheat: 10
[7]; [19]
  Plant response rating, Wheat: 25
[7]; [20]
  Wheat plant response rating: 85
[8]; [17]
  Plant response rating, Crabgrass, Large: 0
[8]; [18]
  Plant response rating, Crabgrass, Large: 0
[8]; [19]
  Plant response rating, Crabgrass, Large: 10
[8]; [20]
  Crabgrass, Large plant response rating: 10
[9]; [17]
  Plant response rating, Velvetleaf: 15
[9]; [18]
  Plant response rating, Velvetleaf: 40
[9]; [19]
  Plant response rating, Velvetleaf: 65
[9]; [20]
  Velvetleaf plant response rating: 75
[10]; [17]
  Plant response rating, Ryegrass, Italian: 10
[10]; [18]
  Plant response rating, Ryegrass, Italian: 50
[10]; [19]
  Plant response rating, Ryegrass, Italian: 90
[10]; [20]
  Ryegrass, Italian plant response rating: 90
[11]; [17]
  Plant response rating, Morningglory: 10
[11]; [18]
  Plant response rating, Morningglory: 40
[11]; [19]
  Plant response rating, Morningglory: 75
[11]; [20]
  Morningglory plant response rating: 90
[12]; [17]
  Plant response rating, Lambsquarters: 50
[12]; [18]
  Plant response rating, Lambsquarters: 75
[12]; [19]
  Plant response rating, Lambsquarters: 90
[12]; [20]
  Lambsquarters plant response rating: 98
Corn (Zea mays); [17]
  Plant response rating, Corn: 15
Corn (Zea mays); [18]
  Plant response rating, Corn: 10
Corn (Zea mays); [19]
  Plant response rating, Corn: 10
Corn (Zea mays); [20]
  Corn plant response rating: 15
[13]; [17]
  Plant response rating, Nutsedge, Yellow: 5
[13]; [18]
  Plant response rating, Nutsedge, Yellow: 20
[13]; [19]
  Plant response rating, Nutsedge, Yellow: 55
[13]; [20]
  Nutsedge, Yellow plant response rating: 85
